Values of other authors as cited in patent US20260020560A1, “AG[…] DIHYDROJASMONATE COMPOSITIONS” (priority 2022, published 2026).

Structure (SMILES) | pKa at 25° C.
O=S(=O)(O)CC(O)CNC(CO)(CO)CO (centres unmarked) [TAPSO, 3-[N-tris(hydroxymethyl)methyl-amino]-2-hydroxypropanesulfonic acid] | 7.635
O=S(=O)(O)CCN1CCN(CCO)CC1 [HEPES, 4-(2-hydroxyethyl)-1-piperazineethanesulfonic acid] | 7.48
